Laboratory results taken from patent US11427544B2, “Histone deacetylase 6 inhibitors and use thereof” (TAIPEI MEDICAL UNIVERSITY, priority 2016, dated 2022).

Legend:
[1] = system: PC-3 prostate cancer cell line; assay: Antiproliferative activity, PC-3; format: cell-based, human; details: Homo sapiens
Experimental: (§1) A study was conducted to evaluate the inhibitory activity of compounds of Formula (I) in inhibiting HDAC6, antiproliferative activity of test compounds in suppressing cancer cell growth, and selectivity of inhibiting HDAC6 over other HDAC isoforms.
(§2) The study was performed according to the protocol reported in Hsieh et al., Cell Death and Disease, 2014, April; 5:e1166.
(§3) Shown in Table 2 below are antiproliferative activities (measured by their half maximal concentration for inhibiting cell growth, i.e., GI50) of the test compounds against various cancer cell lines.

[2] = system: MDA-MB-231 Breast cancer cell line; assay: Antiproliferative activity, MDA-MB-231; format: cell-based, human; details: Homo sapiens, MDA-MB-231, MDA-MB-231
Experimental: as §1, §2, §3

[3] = system: T98 Glioblastoma cell line; assay: Antiproliferative activity, T98; format: cell-based, human; details: Homo sapiens, T98, T98
Experimental: as §1, §2, §3

[4] = system: acetyl-a-tubuline expression in RPMI8226, U266, and NCI-H929; assay: Acetyl-a-tubuline expression in multiple myeloma cell lines (immunoblotting); format: cell-based, human
Experimental: A study was conducted to evaluate the activity of a compound of Formula (I) in increasing acetyl-a-tubuline expression in human multiple myeloma cell lines (RPMI8226, U266, and NCI-H929).
Cells (1×10^6) were incubated for 10 minutes at 4° C. in a lysis buffer solution in a culture vessel, and then scraped off the culture vessel, incubated on ice for another 10 minutes, and centrifuged at 17,000×g for 30 minutes at 4° C. Protein samples (80 μg) were electrophoresed on SDS gels and transferred onto a nitrocellulose membrane, which was blocked by incubation with 5% fat-free milk in phosphate-buffered saline (PBS) for 30 minutes at room temperature. Immunoblotting was performed by overnight incubation at 4° C. with primary antibodies in PBS, followed by incubation for 1 hour at room temperature with horseradish peroxidase (HRP)-conjugated secondary antibodies, then bound antibodies were measured using enhanced chemiluminescence (ECL) reagent (Advansta Corp., Menlo Park, Calif., USA) and exposure to photographic film.
The study was performed according to the protocol reported in Yang et al., Journal of Molecular Medicine, 2014, November; 92(11):1147-1158.

[5] = system: RPMI8226, U266, and NCI-H929 multiple myeloma cell lines; assay: Apoptosis in multiple myeloma cells, combined with bortezomib (propidium iodide, FACScan); format: cell-based, human; details: 24 hours
Experimental: A study was conducted to evaluate the effect of a compound of Formula (I) combined with bortezomib in inducing apoptosis in multiple myeloma cells.
To detect cell cycle progression, cells were incubated with or without the indicated agent for 24 hours, washed twice with ice-cold PBS, collected by centrifugation, and fixed in 70% (v/v) ethanol for 2 hours at −20° C. They were subsequently incubated for 30 minutes at room temperature with 0.2 mL of deoxyribonucleic acid (DNA) extraction buffer (0.2 M Na2HPO4 and 0.1 M citric acid buffer, pH 7.8), re-suspended in 1 mL of propidium iodide staining buffer (0.1% Triton X-100, 100 μg/mL of RNase A, and 80 μg/mL of propidium iodide in PBS), incubated at 37° C. for 30 minutes in darkness, sorted by FACScan, and analyzed using CellQuest software (BD Biosciences).
as §2

[6] = system: Aβ42 production in pCAX APP 695 plasmid-transfected Neuro 2a and SH—SYSY cells; assay: Aβ42 production in cell culture supernatants; format: cell-based; details: pCAX APP 695 transfected Neuro 2a and SH—SYSY cells; 0.1-10 μM, 24 hours
Experimental: A study was conducted to evaluate the effect of compounds of Formula (I) in amyloid precursor protein (APP) levels and Aβ42 production.
Moreover, neuro 2a or SH—SYSY cells (1×10^5) were transfected with pCAX APP 695 plasmid for 24 hours, followed by incubation with Compound 12 or Compound 28 (0.1-10 μM) for another 24 hours. Cell culture supernatants were assayed for Aβ42 production.

[7] = system: RPMI-8226 Multiple myeloma; assay: Tumor growth inhibition, RPMI-8226 xenograft; format: in vivo, athymic nude mice; details: 50 mg/kg, qd
Experimental: (§4) An in vivo study was conducted to evaluate the efficacy of compounds of Formula (I) in suppressing tumor growth in multiple human cancer types.
(§5) Eight-week-old athymic nude mice were group-housed under conditions of constant photoperiod (12 h light/12 h dark at 21-23° C. and 60-85% humidity) with ad libitum access to sterilized food and water. All animal experiments followed ethical standards, and protocols were reviewed and approved by the Animal Use and Management Committee of National Taiwan University. Each mouse was inoculated subcutaneously with 1×10^6˜1×10^7 human cancer cells in a total volume of 0.1 mL serum-free medium containing 50% Matrigel (BD Biosciences). As tumors became established (˜100 mm^3), mice were randomized to various groups to be treated with pre-determined materials (n=6-8/group): (i) control group: 0.5% DMSO/0.5% Cremophor/90% D5W and (ii) treatment groups: Compounds 12 and 28 at pre-determined doses daily. Mice received treatment by intraperitoneal injection for the duration of the study. Tumors were measured weekly using calipers. Tumor size, in mm^3, was calculated according to the formula: Tumor volume=(w^2×l)/2, where w and 1 respectively represent the width and length (both in mm) of the tumor.

[8] = system: BJAB Burkitt lymphoma-derived B-cell; assay: Tumor growth inhibition, BJAB xenograft; format: in vivo, athymic nude mice; details: qd, intraperitoneal
Experimental: as §4, §5

[9] = system: MDA-MB-231 Breast; assay: Tumor growth inhibition, MDA-MB-231 xenograft; format: in vivo, athymic nude mice; details: qd, intraperitoneal
Experimental: as §4, §5

[10] = system: HCT116 Colorectal; assay: Tumor growth inhibition, HCT116 xenograft; format: in vivo, athymic nude mice; details: qd, intraperitoneal
Experimental: as §4, §5

[11] = Safety in ICR mice, 7-day intraperitoneal dosing; format: in vivo; details: 50, 100, and 200 mg/kg intraperitoneally once a day for 7 days, monitored another 7 days
Experimental: In addition, both Compounds 12 and 28 were studied to evaluate their safety in animals.
[…]. The animals were dosed intraperitoneally once a day for 7 days and then monitored for another 7 days. The animals were weighed daily for 1 week and then twice weekly.

[12] = system: scopolamine-induced memory deficit; assay: Water maze test, scopolamine-treated rats; format: in vivo; details: gavage twice daily for seven days; scopolamine 1.5 mg/kg i.p.
Experimental: An in vivo study was conducted to evaluate the efficacy of compounds of Formula (I) in improving memory deficits associated with Alzheimer's disease.
Compound 12, Compound 28, suberanilohydroxamic acid (50 mg/kg) or vehicle was given to rats by gavage twice daily for seven days prior to behavioral experiments. On the day conducting a behavior assessment, rats in all groups except the control group were administered scopolamine (1.5 mg/kg) by intraperitoneal injection for 30 minutes before the assessment, then a water maze test or an elevated plus maze test was performed.

O=C(NO)c1ccc(CNc2cccc3cccnc23)cc1 [Compound 28, N-hydroxy-4-((quinolin-8-ylamino)methyl)benzamide]
GI50 [1]: 3.4 ± 0.13 µM | GI50 [2]: 1.89 ± 0.33 µM | GI50 [3]: 9.89 ± 0.92 µM | acetyl-a-tubuline expression [4]: increasing acetyl-a-tubuline expression in a dose-dependent manner | induction of apoptosis [5]: synergistically induced apoptosis | Aβ42 production [6]: decreased Aβ42 production | Best Response ([7]; CR: complete regression): 2 × CR^a | % TGI ([7]; intraperitoneal): 80.0% | % TGI ([8]; 25 mg/kg): 40.8% | % TGI ([8]; 50 mg/kg): 74.0% | % TGI ([9]; 25 mg/kg): 38.6% | % TGI ([9]; 50 mg/kg): 56.4% | % TGI ([10]; 50 mg/kg): 9.1% | % TGI ([10]; 100 mg/kg): 44.4% | tolerability [11]: well tolerated | time spent in the correct quadrant (water maze) [12]: markedly reverse this effect
